What all share (assay): growth of human tumour cells (NCI), 48 h
Test [1] relates to NCI-H522 lung.
Test [2] relates to MOLT-4 leukemia.
Test [3] has as its system OVCAR-3 ovarian.
For test [4], the system named is NCI-H23 lung.
The test system of test [5] is 786-0 renal.
For test [6], the system named is SF-295 CNS.
In test [7] the test system is HT29 colon.
The test system of test [8] is U251 CNS.
Test [9] has as its system SNB-75 CNS.
The subject of test [10] is HCC-2998 colon.

SMILES strings stand for the structures.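 Results reflect a 48-hour exposure of cells in 96-well plates to compound at five concentrations. The concentration for 50% growth inhibition is given as GI50. At the TGI there is no net growth.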

For the compound `O=c1c2cc(Cl)ccc2sc2cccc(Cl)c12`, the TGI in test [1], in test [2], in test [3], in [4], in test [5] and in test [6] was greater than 100 µM throughout. Moreover, the TGI in test [7] and in test [8] was greater than 100 µM each time.

Regarding `Cc1ccc(Cl)cc1NC(=O)c1sc2nc3c(cc2c1N)C(=O)CCC3`, the GI50 was 2.17 µM in test [1]; greater than 100 µM in test [2]; 4.1 µM in [9]; greater than 100 µM in test [10]; greater than 100 µM in test [5]; 2.33 µM in test [6]. For the same compound, the GI50 in test [7] was 3.54 µM; in test [8] it was 4.45 µM. Further, the TGI in test [1] was 4.95 µM; in test [2], greater than 100 µM; in [9], greater than 100 µM; in [10], greater than 100 µM; in test [5], greater than 100 µM; in [6], 7.44 µM. The TGI in test [7] and in [8] was greater than 100 µM throughout.

As to `NC(N)=NS(=O)(=O)c1ccc(NCCc2c3ccccc3nc3ccccc23)cc1`, the TGI in test [1], in [2], in test [3], in test [9], in test [10] and in test [5] was greater than 100 µM throughout. The TGI in test [6], in [7] and in [8] was greater than 100 µM each time.

On to `N#Cc1cccc(/C=N/N=C(\N)NO)c1`, for which the TGI in test [1], in test [3], in test [4], in [9], in test [5] and in test [6] was greater than 100 µM throughout. The TGI in [7] and in test [8] was greater than 100 µM in each case.

Consider `CN(Cc1cc(C(C)(C)C)cc(Br)c1O)Cc1cc(C(C)(C)C)cc(Br)c1O`, for which the TGI in [1] came out at 7.33 µM; in test [2], 19.9 µM; in test [3], 6.73 µM; in [4] it was 9.88 µM; in [9], 13 µM; in test [5], 13.8 µM. The TGI in test [6] worked out at 14.3 µM; in test [7], 15.9 µM; in test [8], 8.15 µM.

`CCN1CCN(CC(=O)N2c3cccc4cccc(c34)N(C(=O)CN3CCN(CC)CC3)C2c2cn(-c3ccccc3)nc2-c2cccc([N+](=O)[O-])c2)CC1`: the GI50 was 1.69 µM in test [2]; 1.63 µM in test [3]; 1.81 µM in test [4]; 1.13 µM in test [9]; 1.83 µM in test [10]; 1.66 µM in test [5]. Moreover, the GI50 in test [6] was 1.84 µM; in [7], 1.74 µM; in test [8], 1.53 µM. Further, the TGI came out at 5.06 µM in [2]; 3.24 µM in [3]; 3.59 µM in test [4]; 2.48 µM in test [9]; 3.43 µM in test [10]; 3.17 µM in test [5]. Also, the TGI in test [6] came to 3.44 µM; in [7], 3.84 µM; in test [8], 3.21 µM.

In the case of `O=C1c2ccccc2-c2c1c1ccccc1c(=O)n2CCCn1ccnc1`, the GI50 in [1] was 2.14 µM; in test [2], 0.274 µM; in test [4] it was 1.84 µM; in [9] it was 5.82 µM; in [5], 1.74 µM; in test [6], 0.896 µM. Further, the GI50 in test [7] was 1.22 µM; in test [8], 0.793 µM. In addition, the TGI in test [1] is greater than 100 µM; in [2], 0.763 µM; in [4], 6.05 µM; in test [9], 93.4 µM; in test [5], 7.72 µM; in test [6] it was 2.99 µM. Moreover, the TGI in [7] was determined as 6.27 µM; in [8] it was 6.83 µM.

On to `CCCSS[C@H]1NC(=O)[C@H]1NC(=O)COc1ccccc1`, for which the TGI in [2] was found to be 13.2 µM; in test [3], 31.5 µM; in test [4] it was 31.9 µM; in test [9], 44 µM; in test [10] it was 29.9 µM; in [5], 31.5 µM. Moreover, the TGI in [6] was greater than 100 µM; in test [7], 36.3 µM; in test [8], 31.8 µM.

For `Clc1ccc(C(n2cc(Br)cn2)n2cc(Br)cn2)cc1`, the TGI in test [1] came out at 27.7 µM; in test [2], 47.9 µM; in test [3] it was 28 µM; in test [4] it was 42.6 µM; in test [10], 31.8 µM; in test [5], 27.8 µM. Also, the TGI in [6] came to 29.8 µM; in test [7], 26.9 µM; in test [8] it was 30.8 µM.

As for `COC(C)(C)C/C=C/C(C)=C/C=C/C(C)=C\C=C\C(C)=C\C=C\C=C(C)\C=C\C=C(C)\C=C\C=C(C)\C=C\CC(C)(C)OC`, the GI50 in [1], in [2], in [4], in test [9], in [10] and in test [5] was greater than 150 µg/mL in each case. Besides, the GI50 in test [7] and in test [8] was greater than 150 µg/mL each time. In addition, the TGI in test [1], in test [2], in [4], in [9], in test [10] and in test [5] was greater than 150 µg/mL each time. Further, the TGI in [7] and in test [8] was greater than 150 µg/mL in each case.

Turning to `O=C(NC12CC3CC(CC(C3)C1)C2)C(=O)c1c[nH]c2ccccc12`, the TGI in [1] came out at 31.7 µM; in test [2], 43.2 µM; in test [3] it was 31 µM; in test [4], 29.6 µM; in [10], 28 µM; in test [5] it was 25.8 µM. Besides, the TGI in test [6] came out at 22.4 µM; in test [7], 15 µM; in test [8], 26.7 µM.

In the case of `Oc1ccc2oc3ncc(Br)c(-c4ccccc4)c3c2c1`, the GI50 in test [1], in test [2], in test [3], in [4], in test [5] and in test [6] was greater than 100 µM each time. Besides, the GI50 in test [7] and in test [8] was greater than 100 µM throughout. The TGI in [1], in test [2], in test [3], in [4], in [5] and in test [6] was greater than 100 µM throughout. For the same compound, the TGI in [7] and in test [8] was greater than 100 µM throughout.

`Cc1cc2c(C)nn(Cc3ccc(Cl)cc3)c2c(C#N)c1C`: the TGI in [3], in test [4], in test [10], in test [5], in test [6] and in [8] was greater than 100 µM in each case.

`CN(C)CCCNC(=O)c1cc(NC(=O)c2cc(NC(=O)CCNS(=O)(=O)c3ccc4c(c3)C(=O)c3ccccc3C4=O)cn2C)cn1C`: the GI50 in test [1], in test [2], in test [3], in test [4], in [10] and in test [5] was greater than 100 µM each time. For the same compound, the GI50 in test [6], in test [7] and in test [8] was greater than 100 µM throughout. Also, the TGI in test [1], in [2], in test [3], in test [4], in test [10] and in test [5] was greater than 100 µM throughout. For the same compound, the TGI in test [6], in [7] and in test [8] was greater than 100 µM throughout.

For the compound `O=c1cccccc1[O-].O=c1cccccc1[O-].O=c1cccccc1[O-].[La+3]`, the TGI in test [1] is 84.2 µM; in test [2], greater than 100 µM; in test [3], 55.8 µM; in test [4], greater than 100 µM; in test [10], greater than 100 µM; in [5], 30.4 µM. The figures for the TGI in test [6], in test [7] and in [8] were 39.6 µM, greater than 100 µM and 76.2 µM, respectively. Further, the GI50 in test [8] was 11 µM.

With `CC(C)OP(=O)(NC(=S)c1ccccc1)OC(C)C`, the TGI in test [2], in [3], in test [4], in test [9], in test [10] and in [5] was greater than 100 µM throughout. In addition, the TGI in [6], in test [7] and in test [8] was greater than 100 µM throughout.

`CN1C(=O)C2C(C1=O)C1(O)c3ccccc3C2(N)c2ccccc21` (stereo unspecified): the TGI in [2], in test [3], in test [4], in [9], in test [10] and in [5] was greater than 100 µM in each case. Besides, the TGI in test [6], in test [7] and in [8] was greater than 100 µM each time.

In the case of `O=c1c(O)c(-c2cc(O)c(O)c(O)c2)oc2cc(O)cc(O)c12`, the TGI in test [1] was greater than 100 µM; in test [2], greater than 100 µM; in test [3] it was 89.7 µM; in test [4] it was 35.4 µM; in [9], greater than 100 µM; in [5], 44.8 µM. Besides, the results for the TGI in test [6], in test [7] and in test [8] were 36.3 µM, 38.9 µM and 32.8 µM, respectively.

With `O=C(O)C1CC(O)CN1` (stereo unspecified), the TGI in [2], in test [3], in test [4], in test [9], in [10] and in test [5] was greater than 100 µM throughout. For the same compound, the TGI in test [6], in test [7] and in [8] was greater than 100 µM in each case.

Consider `CCN(CC)c1ccc(N=Nc2ccc(-c3nc4ccc[n+](C)c4o3)cc2)cc1`, for which the TGI in test [1] was found to be 18.5 µM; in test [2], 16.2 µM; in test [3] it was 21.8 µM; in [4], 28.6 µM; in test [9], 24 µM; in [5] it was 23.7 µM. Besides, the TGI was found to be 27.9 µM in test [6], 24.3 µM in test [7] and 16.6 µM in [8].

Regarding `O=C(O)CCc1nn2c(nc1=O)sc1ccc3ccccc3c12`, the TGI in test [2], in test [3], in test [4], in test [9], in test [10] and in test [5] was greater than 100 µM throughout. In addition, the TGI in test [6], in test [7] and in [8] was greater than 100 µM throughout.

Take `Cc1ccc(O)c(NC(=O)c2ccc(CNc3ccnc(C(F)(F)F)c3)cc2)c1`: the GI50 was 1.77 µM in test [2]; 11.3 µM in [3]; 10.6 µM in [4]; 22.5 µM in [9]; 7.45 µM in test [10]; 5.2 µM in test [5]. The GI50 was 1.35 µM in test [6], 23.1 µM in [7] and 23.5 µM in test [8]. Moreover, the TGI in test [2] came to 20.6 µM; in [3], 28.2 µM; in [4], 53.3 µM; in test [9] it was 90.3 µM; in test [10], 23.2 µM; in test [5], 47.7 µM. The TGI in test [6] was 12.2 µM; in test [7], greater than 100 µM; in test [8] it was greater than 100 µM.

With `COc1cccc(/C=N/C(/N=C/c2cccc(OC)c2O)c2cccc(OC)c2O)c1O`, the TGI is 49.2 µM in test [1]; 62.4 µM in test [3]; greater than 100 µM in test [4]; 48.1 µM in [9]; 73.9 µM in [10]; greater than 100 µM in test [5]. The TGI in test [6] is 80 µM; in [7], greater than 100 µM; in test [8], 80.1 µM.

Regarding `C#CCOc1cccc(Nc2ncnc3cc(NC(=O)CCl)ccc23)c1`, the GI50 in test [1] is 1.46 µM; in test [2], 1.96 µM; in test [3], 1.84 µM; in [4], 3.4 µM; in test [10] it was 8.83 µM; in test [5], 4.68 µM. Also, the GI50 in [6] is 3.52 µM; in [7] it was 2.08 µM; in [8], 2.13 µM. The TGI in [1] worked out at 3.34 µM; in [2] it was 7.42 µM; in test [3] it was 4.35 µM; in [4], 16.7 µM; in [10], 22.6 µM; in [5] it was 18.5 µM. For the same compound, the TGI came out at 15.2 µM in test [6], 6.11 µM in [7] and 4.78 µM in [8].
